Results reported in US7087762B2, “Long-lasting antimicrobial reaction product of allantoin and formaldehyde containing a low level of free formaldehyde” (ISP Investments Inc., priority 2002, dated 2006).

What was measured:
[1] = tested on: A. Niger ATCC 9642; assay: Activity against yeast and mold, 0.3% test solutions; format: cell-based, Aspergillus niger; parameters: key: + Growth; − No Growth
Excerpt: Activity against yeast and mold:

[2] = tested on: EC (ECOLI, Escherichia coli); assay: Preservative challenge test, screening emulsion; format: cell-based
Method: (§1) A typical cosmetic emulsion was prepared for microbiological challenge testing and predetermined admixtures of a methylol compound and IPBC were added at various use levels. The emulsion thus prepared had the following composition:
(§2) To prepare the emulsion, Phases A and B were heated separately to 75°–80° C. Phase A then was added to Phase B with mixing. The mixture then was cooled to 55°–60° C. At this point the desired amount of the preservative admixture was added and the product was cooled to 50° C. while stirring. The citric acid solution then was added to adjust the pH and the mixture was stirred until a temperature of 30° C. was reached.
(§3) The challenge tests were carried out using the following microorganisms: SA, ECOLI, PSA, PC, AN and CAN, in this manner. 50 g aliquots of the test emulsion containing various amounts of the preservative admixture were inoculated with approximately 10^7–10^8 of the challenge organisms. The test samples then were stirred to disperse the challenge inoculum. The samples were incubated and assayed at 48 hours, 7, 14, 21 and 28 days. The assays were performed on 1 g of the test sample by serially diluting 10^1 to 10^6 of the original concentration. The plating medium for bacteria was Letheen agar and for fungi it was low pH Mycophil agar with Tween 20. Each plated sample was incubated for 48 hours at 37° C. for bacteria, 5 days at 25° C. for mold, and 3 days at 25° C. for fungi. After incubation, readings of the number of colonies per milliliter (cfu/ml) were made. At 21 days the test product was reinoculated with half of the original inoculum.

[3] = tested on: AN (Aspergillus niger); assay: Preservative challenge test, screening emulsion; format: cell-based
Method: as §1, §2, §3

[4] = tested on: SA (Staphylococcus aureus); assay: Preservative challenge test, screening emulsion; format: cell-based
Method: as §1, §2, §3

[5] = tested on: BC (B. cepacia); assay: Preservative challenge test, nonionic emulsion; format: cell-based, Burkholderia cepacia
Method: as §1, §3

SMILES: O=C1C(N(CO)C(=O)NCO)N(CO)C(=O)N1CO (centres unmarked) [Germall II]
- Growth, A. Niger ATCC 9642(for 3 Days) [1]: −
- cfu/ml, 48 hrs ([2]; 250 ppm): 5500 cfu/ml
- cfu/ml, 7 days ([2]; 250 ppm): <10 cfu/ml
- cfu/ml, 14 days ([2]; 250 ppm): <10 cfu/ml
- cfu/ml, 21 days ([2]; 250 ppm): <10 cfu/ml
- cfu/ml, 28 days ([2]; 250 ppm): <10 cfu/ml
- cfu/ml, 48 hrs ([2]; 500 ppm): 610 cfu/ml
- cfu/ml, 7 days ([2]; 500 ppm): <10 cfu/ml
- cfu/ml, 14 days ([2]; 500 ppm): <10 cfu/ml
- cfu/ml, 21 days ([2]; 500 ppm): <10 cfu/ml
- cfu/ml, 28 days ([2]; 500 ppm): <10 cfu/ml
- cfu/ml, 48 hrs ([2]; 1000 ppm): <10 cfu/ml
- cfu/ml, 7 days ([2]; 1000 ppm): <10 cfu/ml
- cfu/ml, 14 days ([2]; 1000 ppm): <10 cfu/ml
- cfu/ml, 21 days ([2]; 1000 ppm): <10 cfu/ml
- cfu/ml, 28 days ([2]; 1000 ppm): <10 cfu/ml
- cfu/ml, 48 hrs ([2]; 2000 ppm): <10 cfu/ml
- cfu/ml, 7 days ([2]; 2000 ppm): <10 cfu/ml
- cfu/ml, 14 days ([2]; 2000 ppm): <10 cfu/ml
- cfu/ml, 21 days ([2]; 2000 ppm): <10 cfu/ml
- cfu/ml, 28 days ([2]; 2000 ppm): <10 cfu/ml
- cfu/ml, 48 hrs ([3]; 250 ppm): 50,000 cfu/ml
- cfu/ml, 7 days ([3]; 250 ppm): <10 cfu/ml
- cfu/ml, 14 days ([3]; 250 ppm): <10 cfu/ml
- cfu/ml, 21 days ([3]; 250 ppm): <10 cfu/ml
- cfu/ml, 28 days ([3]; 250 ppm): 100 cfu/ml
- cfu/ml, 48 hrs ([3]; 500 ppm): 40 cfu/ml
- cfu/ml, 7 days ([3]; 500 ppm): <10 cfu/ml
- cfu/ml, 14 days ([3]; 500 ppm): <10 cfu/ml
- cfu/ml, 21 days ([3]; 500 ppm): <10 cfu/ml
- cfu/ml, 28 days ([3]; 500 ppm): <10 cfu/ml
- cfu/ml, 48 hrs ([3]; 1000 ppm): <10 cfu/ml
- cfu/ml, 7 days ([3]; 1000 ppm): <10 cfu/ml
- cfu/ml, 14 days ([3]; 1000 ppm): <10 cfu/ml
- cfu/ml, 21 days ([3]; 1000 ppm): <10 cfu/ml
- cfu/ml, 28 days ([3]; 1000 ppm): <10 cfu/ml
- cfu/ml, 48 hrs ([3]; 2000 ppm): <10 cfu/ml
- cfu/ml, 7 days ([3]; 2000 ppm): <10 cfu/ml
- cfu/ml, 14 days ([3]; 2000 ppm): <10 cfu/ml
- cfu/ml, 21 days ([3]; 2000 ppm): <10 cfu/ml
- cfu/ml, 28 days ([3]; 2000 ppm): <10 cfu/ml
- cfu/ml, 48 hrs ([4]; 250 ppm): 55,000 cfu/ml
- cfu/ml, 7 days ([4]; 250 ppm): <10 cfu/ml
- cfu/ml, 14 days ([4]; 250 ppm): <10 cfu/ml
- cfu/ml, 21 days ([4]; 250 ppm): <10 cfu/ml
- cfu/ml, 28 days ([4]; 250 ppm): <10 cfu/ml
- cfu/ml, 48 hrs ([4]; 500 ppm): 17,000 cfu/ml
- cfu/ml, 7 days ([4]; 500 ppm): <10 cfu/ml
- cfu/ml, 14 days ([4]; 500 ppm): <10 cfu/ml
- cfu/ml, 21 days ([4]; 500 ppm): <10 cfu/ml
- cfu/ml, 28 days ([4]; 500 ppm): <10 cfu/ml
- cfu/ml, 48 hrs ([4]; 1000 ppm): <10 cfu/ml
- cfu/ml, 7 days ([4]; 1000 ppm): <10 cfu/ml
- cfu/ml, 14 days ([4]; 1000 ppm): <10 cfu/ml
- cfu/ml, 21 days ([4]; 1000 ppm): <10 cfu/ml
- cfu/ml, 28 days ([4]; 1000 ppm): <10 cfu/ml
- cfu/ml, 48 hrs ([4]; 2000 ppm): <10 cfu/ml
- cfu/ml, 7 days ([4]; 2000 ppm): <10 cfu/ml
- cfu/ml, 14 days ([4]; 2000 ppm): <10 cfu/ml
- cfu/ml, 21 days ([4]; 2000 ppm): <10 cfu/ml
- cfu/ml, 28 days ([4]; 2000 ppm): <10 cfu/ml
- cfu/ml, 48 hrs ([5]; 2000 ppm): <10 cfu/ml
- cfu/ml, 7 days ([5]; 2000 ppm): <10 cfu/ml
- cfu/ml, 14 days ([5]; 2000 ppm): <10 cfu/ml
- cfu/ml, 21 days ([5]; 2000 ppm): <10 cfu/ml
- cfu/ml, 28 days ([5]; 2000 ppm): <10 cfu/ml
- cfu/ml, 48 hrs ([5]; 4000 ppm): <10 cfu/ml
- cfu/ml, 7 days ([5]; 4000 ppm): <10 cfu/ml
- cfu/ml, 14 days ([5]; 4000 ppm): <10 cfu/ml
- cfu/ml, 21 days ([5]; 4000 ppm): <10 cfu/ml
- cfu/ml, 28 days ([5]; 4000 ppm): <10 cfu/ml
